Literature values, collected in patent US8440655B2, “Combination therapy for the treatment of diabetes” (Theracos, Inc., priority 2010, dated 2013).

Key:
[1] = at 90 degrees
cortical receptors = details: (+) form compared to (−) isomer
cardiac receptors = details: (+) form compared to (−) form
muscarinic receptor = details: result in words

half time of interconversion of the two forms [1]	factor by which the (+) form is more effective than the (−) isomer (cortical receptors)	factor by which the (+) form is more potent than the (−) form (cardiac receptors)	antimuscarinic activity (muscarinic receptor)	SMILES
approximately 200 hours				Cc1scc2c1N(C(=O)CN1CCN(C)CC1)c1ccccc1NC2=O [Telenzepine, 4,9-Dihydro-3-methyl-4-[(4-methyl-1-piperazinyl)acetyl]-10H-thieno[3,4-b][1,5]benzodiazepin-10-one]
	400	50	potent antimuscarinic activity	Cc1scc2c1N(C(=O)CN1CCN(C)CC1)c1ccccc1NC2=O [(+) form of telenzepine]
			considerably less active	Cc1scc2c1N(C(=O)CN1CCN(C)CC1)c1ccccc1NC2=O [(−) form]
